Data as given in ChEMBL document CHEMBL6092178, “Discovery of a novel KV7.2/7.3 channels agonist for the treatment of neuropathic pain” (Eur J Med Chem, 2024).
The source made the active and inactive calls.

Key:
[1] = biological target: Voltage-gated potassium channel, KQT; KCNQ2(Kv7.2)/KCNQ3(Kv7.3) (Homo sapiens, UniProt O43525+O43526); test: Agonist activity at human KCNQ2/3 transfected in human HEK293 cells incubated for 30 mins by fluorimetric assay; type: cell-based
[2] = Hepatotoxicity in rat assessed as increase in serum ALT level at 10 to 20 mg/kg, IG administered for 28 days and measured after 14 days relative to control; type: toxicity, organism-based; conditions: in vivo, po, 672 h, dose 10-20 mg/kg, time 28 day
[3] = Hepatotoxicity in rat assessed as increase in serum TBIL level at 40 mg/kg, IG administered for 28 days and measured after 14 days; type: toxicity, organism-based; conditions: in vivo, po, 672 h, time 28 day
[4] = Hepatotoxicity in rat assessed as change in serum AST level at 10 to 40 mg/kg, IG administered for 28 days and measured after 14 days; type: toxicity, organism-based; conditions: in vivo, po, 672 h, dose 10-40 mg/kg, time 28 day
[5] = Hepatotoxicity in rat assessed as change in serum ALP level at 10 to 40 mg/kg, IG administered for 28 days and measured after 14 days; type: toxicity, organism-based; conditions: in vivo, po, 672 h, dose 10-40 mg/kg, time 28 day
[6] = Hepatotoxicity in rat assessed as change in serum total bilirubin (TBIL) level at 10 to 40 mg/kg, IG administered for 28 days and measured after 14 days; type: toxicity, organism-based; conditions: in vivo, po, 672 h, dose 10-40 mg/kg, time 28 day
[7] = Hepatotoxicity in rat assessed as increase in serum ALT level at 40 mg/kg, IG administered for 28 days and measured after 14 days; type: toxicity, organism-based; conditions: in vivo, po, 672 h, time 28 day
[8] = biological target: Mu-type opioid receptor (Homo sapiens) (UniProt P35372); test: Inhibition of mu-opioid receptor (unknown origin) relative to control; conditions: concentration not given here
Sequence of Mu-type opioid receptor (Homo sapiens) (P35372 whole entry): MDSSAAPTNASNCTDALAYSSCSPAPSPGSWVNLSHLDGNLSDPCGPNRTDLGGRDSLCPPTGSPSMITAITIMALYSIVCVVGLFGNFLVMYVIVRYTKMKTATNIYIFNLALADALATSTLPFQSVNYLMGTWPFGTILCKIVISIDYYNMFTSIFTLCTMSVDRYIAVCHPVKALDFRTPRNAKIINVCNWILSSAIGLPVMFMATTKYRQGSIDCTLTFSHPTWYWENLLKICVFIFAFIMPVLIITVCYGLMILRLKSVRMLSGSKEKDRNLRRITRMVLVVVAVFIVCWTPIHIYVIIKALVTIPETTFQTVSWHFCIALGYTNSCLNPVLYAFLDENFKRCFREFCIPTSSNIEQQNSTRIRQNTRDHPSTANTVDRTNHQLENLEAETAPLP

[9] = Clearance in male Sprague-Dawley rat at 30 mg/kg, IG measured upto 24 hrs by LC-MS/MS analysis; type: ADME, organism-based; conditions: in vivo, po
[10] = Cmax in male Sprague-Dawley rat at 30 mg/kg, IG measured upto 24 hrs by LC-MS/MS analysis; type: ADME, organism-based; conditions: in vivo, po
Rattus norvegicus [11] = species on record: Rattus norvegicus; test: Analgesic activity in streptozotocin-induced diabetic peripheral neuropathic pain male Sprague-Dawley rat model pretreated with compound for 1 hrs and measured on day 15 after surgery; type: functional; conditions: dose 10-40 mg/kg
[12] = biological target: Voltage-gated potassium channel, KQT; KCNQ2(Kv7.2)/KCNQ3(Kv7.3) (Homo sapiens) (UniProt O43526+O43525); test: Agonist activity at human KCNQ2/3 transfected in human HEK293 cells incubated for 30 mins by fluorimetric assay relative to flupirtine; type: cell-based; conditions: filed as agonist
Homo sapiens [13] = species on record: Homo sapiens; test: Inhibition of voltage-gated sodium channel Nav 1.7 (unknown origin) relative to control; conditions: concentration not given here
Rattus norvegicus [14] = test: Antiallodynic activity in IG dosed spinal nerve ligation-induced neuropathic pain male Sprague-Dawley rat model assessed as mechanical withdrawal threshold pretreated with compound for 1 hr and measured on day 15 after surgery; type: functional
[15] = AUC (0 to t) in male Sprague-Dawley rat at 5 mg/kg, iv measured upto 24 hrs by LC-MS/MS analysis; type: ADME, organism-based; conditions: in vivo
[16] = biological target: Histamine H3 receptor (Homo sapiens) (UniProt Q9Y5N1); test: Inhibition of H3 receptor (unknown origin) relative to control; conditions: concentration not given here
Sequence of Histamine H3 receptor (Homo sapiens) (Q9Y5N1 whole entry): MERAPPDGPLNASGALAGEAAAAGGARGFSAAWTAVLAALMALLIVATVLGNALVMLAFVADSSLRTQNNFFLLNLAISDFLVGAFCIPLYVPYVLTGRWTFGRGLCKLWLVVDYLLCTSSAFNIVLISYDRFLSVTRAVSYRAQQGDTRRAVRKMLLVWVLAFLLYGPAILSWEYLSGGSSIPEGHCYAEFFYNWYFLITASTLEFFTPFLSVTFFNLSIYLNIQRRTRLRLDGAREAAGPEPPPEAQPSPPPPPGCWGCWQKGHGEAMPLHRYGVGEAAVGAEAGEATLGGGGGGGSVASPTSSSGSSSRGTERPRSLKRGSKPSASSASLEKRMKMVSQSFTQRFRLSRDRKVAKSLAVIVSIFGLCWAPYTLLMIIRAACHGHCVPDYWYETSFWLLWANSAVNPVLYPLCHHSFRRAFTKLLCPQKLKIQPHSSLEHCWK

[17] = Tmax in male Sprague-Dawley rat at 30 mg/kg, IG measured upto 24 hrs by LC-MS/MS analysis; type: ADME, organism-based; conditions: in vivo, po
Rattus norvegicus [18] = test: Antinociceptive activity against formalin-induced pain in male Sprague-Dawley rat assessed as reduction in nociceptive response at 20 mg/kg, IG pretreated for 5 mins followed by formalin challenge and measured for first 9 mins (phase I); type: functional, organism-based; conditions: time 14.0 min
Rattus norvegicus [19] = test: Antiallodynic activity in CCI-induced neuropathic pain Sprague-Dawley rat model assessed as attenuation of mechanical allodynia at 20 mg/kg, IG administration pretreated with compound for 1 hrs and measured on day 15 after surgery; type: functional, organism-based; conditions: time 15.0 day
Rattus norvegicus [20] = test: Antiallodynic activity in spinal nerve ligation-induced neuropathic pain male Sprague-Dawley rat model assessed as mechanical withdrawal threshold at 40 mg/kg, IG pretreated with compound for 1 hr and measured on day 15 after surgery; type: functional, organism-based; conditions: time 15.0 day
[21] = biological target: Glutamate [NMDA] receptor (Homo sapiens) (UniProt Q05586+Q12879+Q13224+O15399+O60391+Q14957+Q8TCU5); test: Inhibition of NMDA receptor (unknown origin) relative to control; type: protein-complex assay; conditions: concentration not given here
Rattus norvegicus [22] = test: Antinociceptive activity against formalin-induced pain in male Sprague-Dawley rat assessed as reduction in nociceptive response in phase II at IG administration pretreated for 5 mins followed by formalin challenge and measured after 60 mins; type: functional; conditions: po, 1.083 h, time 65 min
[23] = Oral bioavailability in male Sprague-Dawley rat at 30 mg/kg measured upto 24 hrs by LC-MS/MS analysis; type: ADME, organism-based; conditions: in vivo
[24] = AUC (0 to t) in male Sprague-Dawley rat at 30 mg/kg, IG measured upto 24 hrs by LC-MS/MS analysis; type: ADME, organism-based; conditions: in vivo, po
[25] = Acute toxicity in mouse assessed as lethal dose at IG administration measured after 7 days; conditions: in vivo, po, time 7 day
[26] = biological target: Transient receptor potential cation channel subfamily V member 1 (Homo sapiens) (UniProt Q8NER1); test: Inhibition of TRPV-1 (unknown origin) relative to control; conditions: concentration not given here
Sequence of Transient receptor potential cation channel subfamily V member 1 (Homo sapiens) (Q8NER1 whole entry): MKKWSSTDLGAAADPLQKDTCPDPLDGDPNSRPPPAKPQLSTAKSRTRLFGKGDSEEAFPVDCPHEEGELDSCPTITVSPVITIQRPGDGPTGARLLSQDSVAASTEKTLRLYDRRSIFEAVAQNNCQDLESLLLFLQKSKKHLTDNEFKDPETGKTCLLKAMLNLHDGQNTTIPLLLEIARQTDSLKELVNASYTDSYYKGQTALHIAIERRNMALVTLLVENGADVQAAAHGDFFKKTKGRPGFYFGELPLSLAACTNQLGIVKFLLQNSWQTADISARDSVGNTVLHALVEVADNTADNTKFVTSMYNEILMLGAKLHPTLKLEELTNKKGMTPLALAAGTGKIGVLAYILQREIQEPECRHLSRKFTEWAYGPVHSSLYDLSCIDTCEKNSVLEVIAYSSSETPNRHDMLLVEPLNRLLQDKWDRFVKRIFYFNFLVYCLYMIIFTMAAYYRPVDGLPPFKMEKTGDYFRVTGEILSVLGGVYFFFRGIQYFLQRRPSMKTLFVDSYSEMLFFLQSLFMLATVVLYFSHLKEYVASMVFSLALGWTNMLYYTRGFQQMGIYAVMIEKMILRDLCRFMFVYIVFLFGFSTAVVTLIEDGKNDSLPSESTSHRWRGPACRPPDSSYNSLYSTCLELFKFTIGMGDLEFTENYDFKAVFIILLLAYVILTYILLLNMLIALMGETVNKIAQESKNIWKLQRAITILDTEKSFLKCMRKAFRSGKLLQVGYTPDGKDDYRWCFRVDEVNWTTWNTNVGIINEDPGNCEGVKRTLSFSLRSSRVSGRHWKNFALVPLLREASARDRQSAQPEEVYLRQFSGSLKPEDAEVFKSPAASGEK

Rattus norvegicus [27] = test: Antiallodynic activity in CCI-induced neuropathic pain Sprague-Dawley rat model assessed as attenuation of mechanical allodynia at IG administration pretreated with compound for 1 hrs and measured on day 15 after surgery; type: functional; conditions: dose 10-40 mg/kg
[28] = Half life in male Sprague-Dawley rat at 5 mg/kg, iv measured upto 24 hrs by LC-MS/MS analysis; type: ADME, organism-based; conditions: in vivo
[29] = Acute toxicity in mouse assessed as lethal dose at iv administration measured after 7 days; type: organism-based; conditions: in vivo, time 7 day
[30] = Clearance in male Sprague-Dawley rat at 5 mg/kg, iv measured upto 24 hrs by LC-MS/MS analysis; type: ADME, organism-based; conditions: in vivo
[31] = Acute toxicity in mouse assessed as lethal dose at ip administration measured after 7 days; type: organism-based; conditions: in vivo, time 7 day
Rattus norvegicus [32] = test: Antiallodynic activity against oxaliplatin-induced neuropathic pain Sprague-Dawley rat model assessed as increased mechanical withdrawal threshold at 10 to 40 mg/kg, IG measured for 48 hrs; type: functional, organism-based; conditions: dose 10-40 mg/kg
[33] = biological target: Voltage-gated inwardly rectifying potassium channel KCNH2 (Homo sapiens, UniProt Q12809); test: Inhibition of hERG expressed in HEK293 cells by patch clamp method; type: toxicity, cell-based
Sequence of Voltage-gated inwardly rectifying potassium channel KCNH2 (Q12809 whole entry): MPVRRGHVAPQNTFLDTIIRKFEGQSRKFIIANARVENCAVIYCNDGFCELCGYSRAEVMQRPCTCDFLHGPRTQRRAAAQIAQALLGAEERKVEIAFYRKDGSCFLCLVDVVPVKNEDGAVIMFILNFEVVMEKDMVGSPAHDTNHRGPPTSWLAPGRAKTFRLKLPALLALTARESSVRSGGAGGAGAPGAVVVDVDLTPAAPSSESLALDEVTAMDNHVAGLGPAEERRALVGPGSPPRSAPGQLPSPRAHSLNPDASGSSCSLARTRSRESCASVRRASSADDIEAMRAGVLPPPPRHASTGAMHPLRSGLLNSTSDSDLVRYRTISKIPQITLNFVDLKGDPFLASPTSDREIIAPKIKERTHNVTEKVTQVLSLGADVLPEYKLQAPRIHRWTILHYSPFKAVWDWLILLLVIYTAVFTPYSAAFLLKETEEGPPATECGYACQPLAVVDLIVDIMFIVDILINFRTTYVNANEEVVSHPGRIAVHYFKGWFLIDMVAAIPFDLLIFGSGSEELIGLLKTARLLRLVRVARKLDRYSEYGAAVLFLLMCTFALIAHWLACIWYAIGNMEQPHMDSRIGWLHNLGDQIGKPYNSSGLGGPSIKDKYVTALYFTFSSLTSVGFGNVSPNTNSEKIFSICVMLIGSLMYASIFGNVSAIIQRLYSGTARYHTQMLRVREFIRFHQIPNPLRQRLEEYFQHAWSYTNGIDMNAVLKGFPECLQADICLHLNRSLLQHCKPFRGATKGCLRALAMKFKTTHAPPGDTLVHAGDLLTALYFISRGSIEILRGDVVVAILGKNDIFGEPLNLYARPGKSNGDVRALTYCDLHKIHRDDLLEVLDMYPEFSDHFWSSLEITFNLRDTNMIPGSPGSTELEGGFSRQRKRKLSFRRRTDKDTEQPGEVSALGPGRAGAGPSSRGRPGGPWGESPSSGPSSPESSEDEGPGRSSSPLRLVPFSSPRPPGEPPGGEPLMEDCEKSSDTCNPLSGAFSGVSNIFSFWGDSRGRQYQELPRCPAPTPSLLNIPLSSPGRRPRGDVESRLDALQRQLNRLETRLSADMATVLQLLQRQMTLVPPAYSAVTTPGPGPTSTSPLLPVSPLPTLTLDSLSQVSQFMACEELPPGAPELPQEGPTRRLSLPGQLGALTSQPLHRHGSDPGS

Rattus norvegicus [34] = test: Antinociceptive activity against formalin-induced pain in male Sprague-Dawley rat assessed as reduction in nociceptive response at IG administration pretreated for 5 mins followed by formalin challenge and measured for 9 mins (phase I); type: functional; conditions: po, 14 min
Mus musculus = test: Induction of motor coordination impairment in mouse at 10 to 40 mg/kg, IG measured upto 120 mins by rotarod method; type: functional, organism-based; conditions: dose 10-40 mg/kg
[35] = biological target: GABA-A receptor; anion channel (Homo sapiens) (UniProt P14867+P47870+P18507+P28472+P48169+Q99928+Q9UN88+P34903+O00591+O14764+Q8N1C3+P18505+P78334+P47869+P31644+Q16445); test: Inhibition of GABAA receptor (unknown origin) relative to control; type: protein-complex assay; conditions: concentration not given here
Rattus norvegicus [36] = test: Antiallodynic activity against oxaliplatin-induced neuropathic pain Sprague-Dawley rat model assessed as increased mechanical withdrawal threshold at 40 mg/kg, IG measured after 48 hrs; type: functional, organism-based; conditions: time 1.0 hrs
Rattus norvegicus [37] = test: Antiallodynic activity in CCI-induced neuropathic pain Sprague-Dawley rat model assessed as attenuation of mechanical allodynia at 10 to 40 mg/kg, IG pretreated with compound for 1 hrs and measured on day 15 after surgery; type: functional, organism-based; conditions: dose 10-40 mg/kg, time 15.0 day
Rattus norvegicus [38] = test: Antinociceptive activity against formalin-induced pain in male Sprague-Dawley rat assessed as reduction in nociceptive response at 20 mg/kg, IG pretreated for 5 mins followed by formalin challenge and measured for 10 to 60 mins (phase II); type: functional, organism-based
[39] = Half life in male Sprague-Dawley rat at 30 mg/kg, IG measured upto 24 hrs by LC-MS/MS analysis; type: ADME, organism-based; conditions: in vivo, po
[40] = Hepatotoxicity in rat assessed as increase in serum ALT level at 20 to 40 mg/kg, IG administered for 28 days and measured after 14 days relative to control; type: toxicity, organism-based; conditions: in vivo, po, 672 h, dose 20-40 mg/kg, time 28 day
[41] = AUC (0 to infinity) in male Sprague-Dawley rat at 30 mg/kg, IG measured upto 24 hrs by LC-MS/MS analysis; type: ADME, organism-based; conditions: in vivo, po
[42] = AUC (0 to infinity) in male Sprague-Dawley rat at 5 mg/kg, iv measured upto 24 hrs by LC-MS/MS analysis; type: ADME, organism-based; conditions: in vivo
Rattus norvegicus [43] = test: Analgesic activity in streptozotocin-induced diabetic peripheral neuropathic pain male Sprague-Dawley rat model at 10 to 40 mg/kg pretreated with compound for 1 hrs and measured on day 15 after surgery; type: functional, organism-based; conditions: dose 10-40 mg/kg
Homo sapiens [44] = species on record: Homo sapiens; test: Inhibition of serotonin receptor (unknown origin) relative to control; conditions: concentration not given here
[45] = Cmax in male Sprague-Dawley rat at 5 mg/kg, iv measured upto 24 hrs by LC-MS/MS analysis; type: ADME, organism-based; conditions: in vivo
Rattus norvegicus [46] = test: Antiallodynic activity against oxaliplatin-induced neuropathic pain Sprague-Dawley rat model assessed as increased mechanical withdrawal threshold at IG administration and measured after 48 hrs; type: functional; conditions: po

Sequence of Voltage-gated potassium channel, KQT; KCNQ2(Kv7.2)/KCNQ3(Kv7.3) (O43526 whole entry): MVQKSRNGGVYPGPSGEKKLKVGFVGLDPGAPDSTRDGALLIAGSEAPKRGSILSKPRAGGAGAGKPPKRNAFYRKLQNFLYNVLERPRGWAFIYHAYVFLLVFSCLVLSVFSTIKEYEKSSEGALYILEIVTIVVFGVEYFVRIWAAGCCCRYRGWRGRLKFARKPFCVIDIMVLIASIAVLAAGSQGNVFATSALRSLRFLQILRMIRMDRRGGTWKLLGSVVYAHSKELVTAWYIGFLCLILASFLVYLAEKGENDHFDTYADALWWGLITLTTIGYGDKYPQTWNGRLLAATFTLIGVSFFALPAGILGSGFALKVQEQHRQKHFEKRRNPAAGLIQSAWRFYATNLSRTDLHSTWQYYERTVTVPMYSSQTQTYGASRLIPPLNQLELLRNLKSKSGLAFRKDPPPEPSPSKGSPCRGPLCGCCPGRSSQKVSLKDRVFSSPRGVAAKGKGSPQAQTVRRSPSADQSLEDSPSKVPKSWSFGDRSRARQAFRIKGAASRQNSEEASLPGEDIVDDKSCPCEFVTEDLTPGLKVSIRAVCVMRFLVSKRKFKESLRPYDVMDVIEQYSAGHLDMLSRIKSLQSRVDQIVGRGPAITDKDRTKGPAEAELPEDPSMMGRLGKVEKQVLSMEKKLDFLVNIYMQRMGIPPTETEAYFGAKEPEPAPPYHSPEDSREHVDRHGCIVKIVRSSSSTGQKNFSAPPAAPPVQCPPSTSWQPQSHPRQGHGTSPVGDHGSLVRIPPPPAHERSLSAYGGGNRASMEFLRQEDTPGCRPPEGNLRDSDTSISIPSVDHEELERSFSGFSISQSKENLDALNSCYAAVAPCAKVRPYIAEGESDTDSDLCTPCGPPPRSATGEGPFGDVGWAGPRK
Sequence of Voltage-gated potassium channel, KQT; KCNQ2(Kv7.2)/KCNQ3(Kv7.3) (O43525 whole entry): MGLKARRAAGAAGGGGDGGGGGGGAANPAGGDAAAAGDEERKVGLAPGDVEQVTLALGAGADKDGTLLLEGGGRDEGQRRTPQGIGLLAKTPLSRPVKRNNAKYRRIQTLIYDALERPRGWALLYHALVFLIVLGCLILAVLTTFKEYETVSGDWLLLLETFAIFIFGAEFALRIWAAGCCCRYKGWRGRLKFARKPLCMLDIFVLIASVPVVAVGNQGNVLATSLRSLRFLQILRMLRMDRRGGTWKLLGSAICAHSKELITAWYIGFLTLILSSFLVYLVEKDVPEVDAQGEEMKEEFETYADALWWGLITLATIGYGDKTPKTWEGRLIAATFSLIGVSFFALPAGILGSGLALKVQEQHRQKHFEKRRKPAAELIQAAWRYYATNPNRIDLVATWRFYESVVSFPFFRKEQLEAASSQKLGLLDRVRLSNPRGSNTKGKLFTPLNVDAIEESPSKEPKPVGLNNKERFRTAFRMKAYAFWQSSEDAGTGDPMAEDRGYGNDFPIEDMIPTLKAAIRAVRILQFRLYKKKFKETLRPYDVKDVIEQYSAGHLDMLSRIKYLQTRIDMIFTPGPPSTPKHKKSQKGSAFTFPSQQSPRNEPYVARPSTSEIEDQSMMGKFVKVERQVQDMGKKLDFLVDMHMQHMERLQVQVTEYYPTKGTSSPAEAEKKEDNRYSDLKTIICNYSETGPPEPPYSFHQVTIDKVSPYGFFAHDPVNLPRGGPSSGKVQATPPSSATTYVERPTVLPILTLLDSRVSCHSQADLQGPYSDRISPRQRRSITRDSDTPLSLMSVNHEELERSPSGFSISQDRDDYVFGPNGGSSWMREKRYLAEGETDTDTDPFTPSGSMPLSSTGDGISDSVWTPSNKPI

## CC(=O)Nc1nc(OCc2ccc(Cl)c(Cl)c2)ccc1N
[1]
  EC50: 10.1 µM

## CCOC(=O)Nc1nc(OCc2ccc(F)cc2)ccc1N
[1]
  EC50: 12.1 µM

## CCOC(=O)Nc1ccc(NCc2ccc(F)cc2)nc1N [FLUPIRTINE]
[1]
  EC50: 1.9 µM
[2]
  Activity: < 70%
[3]
  Activity: Toxic
[4]
  Activity: Non-toxic
[5]
  Activity: Non-toxic
[6]
  Activity: Non-toxic
[7]
  Activity: Toxic

## CC(=O)Nc1nc(OCc2ccc3ccccc3c2)ccc1N
[1]
  EC50: 189 µM

## COc1cccc(COc2ccc(N)c(NC(C)=O)n2)c1
[1]
  EC50: 30.3 µM

## CC(=O)Nc1nc(OCc2ccc(F)cc2)ccc1N
[8]
  inhibition: < 50%
[1]
  EC50: 1.03 µM
[9]
  CL/F: 120 mL/min/kg
[10]
  Cmax: 3340 ng/mL
Rattus norvegicus [11]; 360 h, time 15 day
  ED50: 9.63 mg/kg
Rattus norvegicus [11]; time 15.0 day
  Activity: Dose-dependent-effect
[12]
  Activity: 184%
Homo sapiens [13]
  inhibition: < 50%
Rattus norvegicus [14]; po, 360 h, time 15 day
  ED50: 14.9 mg/kg
Rattus norvegicus [14]; time 15.0 day
  Activity: Dose-dependent-effect
[15]
  AUC(0-t) at 24 h: 1100 ng·h/mL
[16]
  inhibition: < 50%
[17]
  Tmax: 0.17 h
Rattus norvegicus [18]
  Activity: Active
Rattus norvegicus [19]
  Activity: Active; Higher Value Observed Than Pregabalin
Rattus norvegicus [20]
  Activity: Active; Superior Activity Observed Than Pregabalin
[21]
  inhibition: 69.7%
Rattus norvegicus [22]
  ED50: 14.7 mg/kg
[23]
  bioavailability: 46.7%
[24]
  AUC(0-t) at 24 h: 4110 ng·h/mL
[25]
  LD50 at 168 h: > 2000 mg/kg
[26]
  inhibition: < 50%
Rattus norvegicus [27]; time 15.0 day
  Activity: Dose-dependent-effect
Rattus norvegicus [27]; po, 360 h, time 15 day
  ED50: 12 mg/kg
[28]
  half-life: 12.8 h
[29]
  LD50 at 168 h: 267 mg/kg
[30]
  clearance: 56.7 mL/min/kg
[31]
  LD50 at 168 h: 421 mg/kg
Rattus norvegicus [32]
  Activity: Active
[33]
  IC50: 448 µM
[4]
  Activity: Non-toxic
Rattus norvegicus [34]
  ED50: 16.2 mg/kg
[5]
  Activity: Non-toxic
Mus musculus
  Activity: Active
[6]
  Activity: Non-toxic
[35]
  inhibition: 59.5%
Rattus norvegicus [36]
  Activity: Active; Inhibition Of Pain Was Higher Than Pregabalin
Rattus norvegicus [37]
  Activity: Active
Rattus norvegicus [38]
  Activity: Active
[39]
  half-life: 3.5 h
[40]
  Activity: < 70%
[41]
  AUC(0-inf): 4270 ng·h/mL
[42]
  AUC(0-inf): 1520 ng·h/mL
Rattus norvegicus [43]
  Activity: Active; Better Activity Than Pregabalin Observed
Homo sapiens [44]
  inhibition: < 50%
[45]
  Cmax: 2850 ng/mL
Rattus norvegicus [46]
  ED50: 12.2 mg/kg

## Nc1ccc(OCc2ccc(F)cc2)cc1NC(=O)C1CC1
[1]
  EC50: 30.3 µM
